We go through eleven molecules from patent publication US8426408B2, “Pyrimidine inhibitors of kinases” (AbbVie Inc., priority 2009, dated 2013).

The subject of test [1] is NCI-H1299 cells. The test can be described thus: Induction of polyploidy in H1299. In kind it is cell-based, Human. The following applies: NCI-H1299, 48 hours; for EC15: Homo sapiens, read-out: EC15 (concentration of inhibitor necessary to induce polyploidy in 15% of cells). An outline of the steps: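 Potency is given as EC15, the inhibitor concentration giving 15% polyploid cells, from log dose-response least-squares analysis. Polyploid cells (nuclear area >750 μ^2, ≥4N) were counted by Hoechst high-content microscopy. H1299 cells had been exposed for 48 h at 37 C in duplicate, then fixed in 3% formalin.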

Test [2] concerns the target T1, KDR (Homo sapiens, UniProt P35968). Description: KDR HTRF in vitro kinase assay. As to conditions: 1 mM ATP; read-out: KDR enzyme inhibition data (Ki). More on the design: purified enzyme (His6-KDR 789-1354, MW 63 kD); His6 (N). The test is classed as biochemical. The essentials: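 His6-KDR 789-1354 (7 ng/well) with 0.5 μM biotinylated peptide substrate and 1 mM ATP in HEPES pH 7.1, MgCl2/MnCl2, 60 min at room temperature. EDTA-quenched, detected by streptavidin-XL-665 plus Eu-kryptate anti-phosphotyrosine HTRF after 3 h; IC50 from 620/665 nm ratio.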
A general note: In TR-FRET formats the signal depends on donor and acceptor labels being close together.
Target sequence in this assay (P35968 789-1354): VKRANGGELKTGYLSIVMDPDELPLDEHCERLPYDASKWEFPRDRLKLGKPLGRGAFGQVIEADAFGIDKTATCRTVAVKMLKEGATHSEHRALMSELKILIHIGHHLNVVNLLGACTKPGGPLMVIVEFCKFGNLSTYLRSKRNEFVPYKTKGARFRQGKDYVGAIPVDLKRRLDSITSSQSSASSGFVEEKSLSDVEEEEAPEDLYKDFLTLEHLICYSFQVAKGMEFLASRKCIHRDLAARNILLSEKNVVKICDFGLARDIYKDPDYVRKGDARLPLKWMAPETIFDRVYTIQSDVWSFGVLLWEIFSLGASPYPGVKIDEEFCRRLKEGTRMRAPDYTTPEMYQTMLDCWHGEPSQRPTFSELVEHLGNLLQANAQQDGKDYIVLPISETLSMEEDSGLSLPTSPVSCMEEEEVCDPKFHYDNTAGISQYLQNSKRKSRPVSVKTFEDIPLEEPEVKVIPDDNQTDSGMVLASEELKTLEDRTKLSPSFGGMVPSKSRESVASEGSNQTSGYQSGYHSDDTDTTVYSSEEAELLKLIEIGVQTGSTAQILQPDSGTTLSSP

For test [3], the target named is T1, KDR. The test can be described thus: KDR cellular assay (KDR receptor phosphorylation ELISA). The test is classed as cell-based. On the set-up: expressed in transfected cells; host or cells: 3T3 (embryonic mouse) cells. The following applies: KDR transfected 3T3 (embryonic mouse) cells, VEGF stimulated; read-out: IC50 inhibition of KDR phosphorylation. The essentials:
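Phospho-KDR measured by capture ELISA (anti-KDR coat, biotinylated detection, streptavidin-HRP, 450 nm) in lysates of KDR-expressing 3T3 mouse fibroblasts. Cells saw compound 20 min at 37° C before 10 min VEGF challenge (100 ng/ml solution); IC50 from non-linear regression of half-log dose series.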
Target sequence in this assay (P35968 20-1356): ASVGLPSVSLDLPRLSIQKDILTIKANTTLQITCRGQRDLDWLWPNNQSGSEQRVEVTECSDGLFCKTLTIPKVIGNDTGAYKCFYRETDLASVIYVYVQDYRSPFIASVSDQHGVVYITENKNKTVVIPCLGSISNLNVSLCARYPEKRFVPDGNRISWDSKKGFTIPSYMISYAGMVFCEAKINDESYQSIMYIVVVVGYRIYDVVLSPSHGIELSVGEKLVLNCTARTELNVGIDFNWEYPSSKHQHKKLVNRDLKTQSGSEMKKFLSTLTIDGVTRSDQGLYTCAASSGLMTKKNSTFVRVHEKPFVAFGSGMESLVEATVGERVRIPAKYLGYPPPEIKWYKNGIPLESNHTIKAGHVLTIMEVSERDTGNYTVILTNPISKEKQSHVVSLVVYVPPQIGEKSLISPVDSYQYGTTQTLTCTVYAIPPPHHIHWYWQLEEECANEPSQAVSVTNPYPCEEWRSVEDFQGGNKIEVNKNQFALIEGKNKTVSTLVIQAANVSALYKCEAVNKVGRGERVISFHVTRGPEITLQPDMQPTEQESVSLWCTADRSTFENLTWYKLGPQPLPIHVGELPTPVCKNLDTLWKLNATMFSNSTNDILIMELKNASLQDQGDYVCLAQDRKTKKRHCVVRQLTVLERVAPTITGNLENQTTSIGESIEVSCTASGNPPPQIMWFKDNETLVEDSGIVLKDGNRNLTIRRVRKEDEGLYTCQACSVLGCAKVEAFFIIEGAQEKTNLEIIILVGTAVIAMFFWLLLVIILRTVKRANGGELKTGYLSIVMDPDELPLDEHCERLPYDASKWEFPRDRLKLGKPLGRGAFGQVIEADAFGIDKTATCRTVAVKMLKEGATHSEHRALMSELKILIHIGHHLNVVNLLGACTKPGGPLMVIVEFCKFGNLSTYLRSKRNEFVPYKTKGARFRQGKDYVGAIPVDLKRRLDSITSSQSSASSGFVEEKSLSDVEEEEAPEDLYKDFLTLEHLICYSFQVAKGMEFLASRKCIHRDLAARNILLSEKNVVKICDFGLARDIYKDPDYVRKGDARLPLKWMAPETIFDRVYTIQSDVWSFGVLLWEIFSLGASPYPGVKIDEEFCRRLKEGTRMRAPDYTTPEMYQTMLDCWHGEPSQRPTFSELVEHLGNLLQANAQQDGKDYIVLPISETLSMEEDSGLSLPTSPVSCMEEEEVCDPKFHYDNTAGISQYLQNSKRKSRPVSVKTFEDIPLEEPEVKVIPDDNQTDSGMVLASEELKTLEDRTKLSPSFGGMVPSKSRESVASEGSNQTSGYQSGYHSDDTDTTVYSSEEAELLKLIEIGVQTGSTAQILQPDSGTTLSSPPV

Usually Ki stands for the equilibrium dissociation constant of an inhibitor or competing ligand from its target. By IC50 is commonly meant the concentration that inhibits the measured activity by half.

Structures are written as SMILES.

With `CCn1cc(Nc2ncc(C(F)(F)F)c(N[C@@H]3[C@H]4CC[C@H](C4)[C@@H]3C(N)=O)n2)cn1.CCn1cc(Nc2ncc(C(F)(F)F)c(N[C@H]3[C@@H]4CC[C@@H](C4)[C@H]3C(N)=O)n2)cn1` (mixture of isomers) [Example 24, (1R,2S,3R,4S)-3-{[2-[(1-ethyl-1H-pyrazol-4-yl)amino]-5-(trifluoromethyl)pyrimidin-4-yl]amino}bicyclo[2.2.1]heptane-2-carboxamide and (1S,2R,3S,4R)-3-{[2-[(1-ethyl-1H-pyrazol-4-yl)amino]-5-(trifluoromethyl)pyrimidin-4-yl]amino}bicyclo[2.2.1]heptane-2-carboxamide], the “EC15 (concentration of inhibitor necessary to induce polyploidy in 15% of cells)” value in test [1] is “A (“A” represents an EC15 of less than 0.1 μM)”. Further, the Ki in test [2] was below 100 nM. In addition, in test [3], the IC50 is below 100 nM.
Regarding `NC(=O)[C@@H]1[C@H](Nc2nc(Nc3cnn(C4CCC4)c3)ncc2Cl)[C@H]2C=C[C@@H]1C2` [Example 118, (1S,2S,3R,4R)-3-({5-chloro-2-[(1-cyclobutyl-1H-pyrazol-4-yl)amino]pyrimidin-4-yl}amino)bicyclo[2.2.1]hept-5-ene-2-carboxamide], the EC15 in test [1] was below 100 nM. In addition, the Ki in test [2] was below 100 nM. Moreover, the IC50 in test [3] is below 100 nM.
Take `Cn1cc(Nc2ncc(Cl)c(N[C@@H]3CC[C@@H]3C(N)=O)n2)cn1.Cn1cc(Nc2ncc(Cl)c(N[C@H]3CC[C@H]3C(N)=O)n2)cn1` (mixture of isomers) [Example 151, (1S,2R)-2-({5-chloro-2-[(1-methyl-1H-pyrazol-4-yl)amino]pyrimidin-4-yl}amino)cyclobutanecarboxamide and (1R,2S)-2-({5-chloro-2-[(1-methyl-1H-pyrazol-4-yl)amino]pyrimidin-4-yl}amino)cyclobutanecarboxamide]: the “EC15 (concentration of inhibitor necessary to induce polyploidy in 15% of cells)” value in test [1] was “A (“A” represents an EC15 of less than 0.1 μM)”. The Ki in test [2] was below 100 nM. Besides, the IC50 in test [3] lay in the range of 100 to 1000 nM.
With `CCn1cc(Nc2ncc(C(F)(F)F)c(N[C@@H]3[C@H](C(N)=O)[C@H]4C=C[C@@H]3C4)n2)cn1.CCn1cc(Nc2ncc(C(F)(F)F)c(N[C@H]3[C@@H](C(N)=O)[C@@H]4C=C[C@H]3C4)n2)cn1` (mixture of isomers) [Example 22, (1S,2S,3R,4R)-3-{[2-[(1-ethyl-1H-pyrazol-4-yl)amino]-5-(trifluoromethyl)pyrimidin-4-yl]amino}bicyclo[2.2.1]hept-5-ene-2-carboxamide and (1R,2R,3S,4S)-3-{[2-[(1-ethyl-1H-pyrazol-4-yl)amino]-5-(trifluoromethyl)pyrimidin-4-yl]amino}bicyclo[2.2.1]hept-5-ene-2-carboxamide], the “EC15 (concentration of inhibitor necessary to induce polyploidy in 15% of cells)” value in test [1] is given as “A (“A” represents an EC15 of less than 0.1 μM)”. In addition, in test [2], the Ki is below 100 nM. In addition, the IC50 in test [3] is below 100 nM.
As for `Cn1cc(Nc2ncc(C(F)(F)F)c(N[C@@H]3[C@@H]4CC[C@@H](C4)[C@@H]3C(N)=O)n2)cn1.Cn1cc(Nc2ncc(C(F)(F)F)c(N[C@H]3[C@H]4CC[C@H](C4)[C@H]3C(N)=O)n2)cn1` (mixture of isomers) [Example 20, (1S,2S,3R,4R)-3-{[2-[(1-methyl-1H-pyrazol-4-yl)amino]-5-(trifluoromethyl)pyrimidin-4-yl]amino}bicyclo[2.2.1]heptane-2-carboxamide and (1R,2R,3S,4S)-3-{[2-[(1-methyl-1H-pyrazol-4-yl)amino]-5-(trifluoromethyl)pyrimidin-4-yl]amino}bicyclo[2.2.1]heptane-2-carboxamide], in test [1], the “EC15 (concentration of inhibitor necessary to induce polyploidy in 15% of cells)” value is recorded as “A (“A” represents an EC15 of less than 0.1 μM)”. Also, in test [2], the Ki is below 100 nM. For the same molecule, in test [3], the IC50 is below 100 nM.
As for `Cn1cc(Nc2ncc(Br)c(Nc3ccccc3C3(O)CCC3)n2)cn1` [Example 132, 1-[2-({5-bromo-2-[(1-methyl-1H-pyrazol-4-yl)amino]pyrimidin-4-yl}amino)phenyl]cyclobutanol], in test [1], the EC15 was in the range of 100 to 1000 nM. In test [2], the Ki was below 100 nM. The IC50 in test [3] fell in the range of 100 to 1000 nM.
Regarding `CC(O)Cn1cc(Nc2ncc(C(F)(F)F)c(NC3C4C=CC(C4)C3C(N)=O)n2)cn1` (mixture of isomers) [Example 19, (1R,2R,3S,4S)-3-{[2-({1-[(2R)-2-hydroxypropyl]-1H-pyrazol-4-yl}amino)-5-(trifluoromethyl)pyrimidin-4-yl]amino}bicyclo[2.2.1]hept-5-ene-2-carboxamide and (1S,2S,3R,4R)-3-{[2-({1-[(2R)-2-hydroxypropyl]-1H-pyrazol-4-yl}amino)-5-(trifluoromethyl)pyrimidin-4-yl]amino}bicyclo[2.2.1]hept-5-ene-2-carboxamide], the “EC15 (concentration of inhibitor necessary to induce polyploidy in 15% of cells)” value in test [1] is listed as “A (“A” represents an EC15 of less than 0.1 μM)”. In test [2], the inhibition constant (Ki) is below 100 nM. Besides, in test [3], the IC50 was below 100 nM.
On to `Cc1cccc(Cn2cc(Nc3ncc(Cl)c(N[C@H]4[C@@H](C(N)=O)[C@@H]5C=C[C@H]4C5)n3)cn2)c1` [Example 178, (1S,2S,3R,4R)-3-[(5-chloro-2-{[1-(3-methylbenzyl)-1H-pyrazol-4-yl]amino}pyrimidin-4-yl)amino]bicyclo[2.2.1]hept-5-ene-2-carboxamide], for which, in test [1], the EC15 is below 100 nM. Also, the Ki in test [2] is below 100 nM. For the same molecule, the IC50 in test [3] was below 100 nM.
As to `NC(=O)[C@@H]1[C@H](Nc2nc(Nc3cnn(Cc4ccc5ccccc5c4)c3)ncc2Cl)[C@H]2C=C[C@@H]1C2` [Example 179, (1S,2S,3R,4R)-3-[(5-chloro-2-{[1-(2-naphthylmethyl)-1H-pyrazol-4-yl]amino}pyrimidin-4-yl)amino]bicyclo[2.2.1]hept-5-ene-2-carboxamide], the EC15 in test [1] was below 100 nM. Also, the inhibition constant Ki in test [2] is below 100 nM. For the same molecule, the IC50 in test [3] was below 100 nM.
For `NC(=O)[C@@H]1[C@H](Nc2nc(Nc3cnn(Cc4ccccc4Cl)c3)ncc2Br)[C@H]2C=C[C@@H]1C2` [Example 171, (1S,2S,3R,4R)-3-[(5-bromo-2-{[1-(2-chlorobenzyl)-1H-pyrazol-4-yl]amino}pyrimidin-4-yl)amino]bicyclo[2.2.1]hept-5-ene-2-carboxamide], in test [1], the EC15 was below 100 nM. Besides, in test [2], the Ki was below 100 nM. Besides, in test [3], the IC50 was below 100 nM.
In the case of `NC(=O)[C@@H]1CCC[C@@H]1Nc1nc(Nc2cnn(C3CCNCC3)c2)ncc1Cl.NC(=O)[C@H]1CCC[C@H]1Nc1nc(Nc2cnn(C3CCNCC3)c2)ncc1Cl` (mixture of isomers) [Example 136, (1S,2R)-2-[(5-chloro-2-{[1-(piperidin-4-yl)-1H-pyrazol-4-yl]amino}pyrimidin-4-yl)amino]cyclopentanecarboxamide and (1R,2S)-2-[(5-chloro-2-{[1-(piperidin-4-yl)-1H-pyrazol-4-yl]amino}pyrimidin-4-yl)amino]cyclopentanecarboxamide], in test [1], the “EC15 (concentration of inhibitor necessary to induce polyploidy in 15% of cells)” value is listed as “A (“A” represents an EC15 of less than 0.1 μM)”. The Ki in test [2] lay within 100 to 1000 nM. Moreover, the IC50 in test [3] lay within 100 to 1000 nM.
